According to ChEMBL document CHEMBL1201862, “PubChem BioAssay data set” (2004):
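Briefly, cells in 96-well plates were exposed to five compound concentrations for 48 h, and endpoints were estimated by linear interpolation. At the GI50, growth is halved.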 Active and inactive are the calls of the source. No stated cut-off is given here; in the data, active = GI50 up to about 1.1 µM and inactive = higher.

What was measured:
Test in all cases: NCI-60 cell line screen, 48 h
[1] = test system: HOP-92
[2] = test system: ACHN
[3] = test system: IGROV-1
[4] = test system: Hs-578T
[5] = test system: SF-295
[6] = test system: UACC-257
[7] = test system: SW-620
[8] = test system: CCRF-CEM
[9] = test system: OVCAR-3
[10] = test system: SF-539
[11] = test system: OVCAR-5
[12] = test system: OVCAR-8
[13] = test system: UO-31
[14] = test system: HCT-116
[15] = test system: MCF7
[16] = test system: OVCAR-4
[17] = test system: K562
[18] = test system: UACC-62
[19] = test system: NCI-H23
[20] = test system: TK-10

## COc1cccc(NCC(=O)Nn2c(-c3ccccc3)nc3ccccc3c2=O)c1
[1]
  GI50: 49.3 µM (inactive)
[2]
  GI50: > 100 µM (inactive)
[3]
  GI50: 64.4 µM (inactive)
[4]
  GI50: > 100 µM (inactive)
[5]
  GI50: > 100 µM (inactive)
[6]
  GI50: > 100 µM (inactive)
[7]
  GI50: > 100 µM (inactive)
[8]
  GI50: 82 µM (inactive)
[9]
  GI50: > 100 µM (inactive)
[10]
  GI50: > 100 µM (inactive)
[11]
  GI50: > 100 µM (inactive)
[12]
  GI50: > 100 µM (inactive)
[13]
  GI50: > 100 µM (inactive)
[14]
  GI50: > 100 µM (inactive)
[15]
  GI50: 52.2 µM (inactive)
[16]
  GI50: > 100 µM (inactive)
[17]
  GI50: > 100 µM (inactive)
[18]
  GI50: 63.4 µM (inactive)
[19]
  GI50: > 100 µM (inactive)
[20]
  GI50: > 100 µM (inactive)

## O=C1C(Cl)=C(Nc2ccc(S(=O)(=O)O)cc2)C(=O)c2ccccc21
[1]
  GI50: 17.3 µM (inactive)
[2]
  GI50: 22 µM (inactive)
[3]
  GI50: 20 µM (inactive)
[4]
  GI50: 24 µM (inactive)
[5]
  GI50: 33.6 µM (inactive)
[6]
  GI50: 40 µM (inactive)
[7]
  GI50: 22 µM (inactive)
[8]
  GI50: 26.7 µM (inactive)
[9]
  GI50: 20.8 µM (inactive)
[10]
  GI50: 19.9 µM (inactive)
[11]
  GI50: > 100 µM (inactive)
[12]
  GI50: 30.1 µM (inactive)
[13]
  GI50: 15 µM (inactive)
[14]
  GI50: 52.6 µM (inactive)
[15]
  GI50: 20.9 µM (inactive)
[16]
  GI50: 38.5 µM (inactive)
[17]
  GI50: 28.2 µM (inactive)
[18]
  GI50: 64.4 µM (inactive)
[19]
  GI50: 37.7 µM (inactive)
[20]
  GI50: 22.1 µM (inactive)

## O=c1c(Br)cc2c(-c3ccccc3)c3cc(Br)c(O)c(Br)c3oc-2c1Br
[1]
  GI50: > 100 µM (inactive)
[2]
  GI50: > 100 µM (inactive)
[3]
  GI50: > 100 µM (inactive)
[4]
  GI50: > 100 µM (inactive)
[5]
  GI50: 84.9 µM (inactive)
[6]
  GI50: > 100 µM (inactive)
[7]
  GI50: > 100 µM (inactive)
[8]
  GI50: > 100 µM (inactive)
[9]
  GI50: > 100 µM (inactive)
[10]
  GI50: 39.5 µM (inactive)
[11]
  GI50: > 100 µM (inactive)
[12]
  GI50: > 100 µM (inactive)
[13]
  GI50: > 100 µM (inactive)
[14]
  GI50: 44.8 µM (inactive)
[15]
  GI50: 79.3 µM (inactive)
[16]
  GI50: 22.3 µM (inactive)
[17]
  GI50: > 100 µM (inactive)
[18]
  GI50: > 100 µM (inactive)
[19]
  GI50: > 100 µM (inactive)
[20]
  GI50: > 100 µM (inactive)

## Cn1c(N/N=C/c2ccccc2)nc(-c2ccc([N+](=O)[O-])cc2)c(C#N)c1=O
[1]
  GI50: 16.5 µM (inactive)
[2]
  GI50: > 100 µM (inactive)
[3]
  GI50: 49.3 µM (inactive)
[4]
  GI50: 55.1 µM (inactive)
[5]
  GI50: 50.1 µM (inactive)
[6]
  GI50: 50 µM (inactive)
[7]
  GI50: 65.8 µM (inactive)
[8]
  GI50: 26 µM (inactive)
[9]
  GI50: 20.5 µM (inactive)
[10]
  GI50: 69.2 µM (inactive)
[11]
  GI50: 38.6 µM (inactive)
[12]
  GI50: 34.3 µM (inactive)
[13]
  GI50: 43.6 µM (inactive)
[14]
  GI50: 27.6 µM (inactive)
[15]
  GI50: 13.1 µM (inactive)
[16]
  GI50: 29 µM (inactive)
[17]
  GI50: 1.61 µM (inactive)
[18]
  GI50: 27.9 µM (inactive)
[19]
  GI50: 44.3 µM (inactive)
[20]
  GI50: 55 µM (inactive)

## COC(=O)Cc1ccc(Oc2nc3ccccc3nc2-c2cccs2)cc1
[1]
  GI50: 24.2 µM (inactive)
[2]
  GI50: > 100 µM (inactive)
[3]
  GI50: > 100 µM (inactive)
[4]
  GI50: 39.8 µM (inactive)
[5]
  GI50: 30.8 µM (inactive)
[6]
  GI50: > 100 µM (inactive)
[7]
  GI50: > 100 µM (inactive)
[8]
  GI50: > 100 µM (inactive)
[9]
  GI50: > 100 µM (inactive)
[10]
  GI50: 52 µM (inactive)
[11]
  GI50: > 100 µM (inactive)
[12]
  GI50: 36.4 µM (inactive)
[13]
  GI50: > 100 µM (inactive)
[14]
  GI50: > 100 µM (inactive)
[15]
  GI50: > 100 µM (inactive)
[16]
  GI50: > 100 µM (inactive)
[17]
  GI50: > 100 µM (inactive)
[18]
  GI50: > 100 µM (inactive)
[19]
  GI50: > 100 µM (inactive)
[20]
  GI50: 95.9 µM (inactive)

## Cc1cc(C)nc(NS(=O)(=O)c2ccc(NNC(=O)c3cccc4c(NNc5ccc(S(=O)(=O)Nc6nc(C)cc(C)n6)cc5)c5ccccc5nc34)cc2)n1
[1]
  GI50: 17.8 µM (inactive)
[2]
  GI50: 17.3 µM (inactive)
[3]
  GI50: 20 µM (inactive)
[4]
  GI50: 23.4 µM (inactive)
[5]
  GI50: 31.8 µM (inactive)
[6]
  GI50: 31 µM (inactive)
[7]
  GI50: 22.1 µM (inactive)
[8]
  GI50: 18.5 µM (inactive)
[9]
  GI50: 28.3 µM (inactive)
[10]
  GI50: 20.3 µM (inactive)
[11]
  GI50: 20.1 µM (inactive)
[12]
  GI50: 20.6 µM (inactive)
[13]
  GI50: 18.9 µM (inactive)
[14]
  GI50: 22.9 µM (inactive)
[15]
  GI50: 31.5 µM (inactive)
[16]
  GI50: 23.3 µM (inactive)
[17]
  GI50: 22.2 µM (inactive)
[18]
  GI50: 18.5 µM (inactive)
[19]
  GI50: 22.8 µM (inactive)
[20]
  GI50: 35.5 µM (inactive)

## O=c1[nH]c2cc([N+](=O)[O-])c(N/N=C/c3ccc(Cl)cc3Cl)c([N+](=O)[O-])c2[nH]1
[1]
  GI50: 32.9 µM (inactive)
[2]
  GI50: 39.8 µM (inactive)
[3]
  GI50: 25.1 µM (inactive)
[4]
  GI50: 90.2 µM (inactive)
[5]
  GI50: > 100 µM (inactive)
[6]
  GI50: > 100 µM (inactive)
[7]
  GI50: 26.7 µM (inactive)
[8]
  GI50: 23.8 µM (inactive)
[9]
  GI50: 17.4 µM (inactive)
[10]
  GI50: > 100 µM (inactive)
[11]
  GI50: 70 µM (inactive)
[12]
  GI50: 20 µM (inactive)
[13]
  GI50: 41.6 µM (inactive)
[14]
  GI50: 25.7 µM (inactive)
[15]
  GI50: 42.6 µM (inactive)
[16]
  GI50: 13.6 µM (inactive)
[17]
  GI50: 43.6 µM (inactive)
[18]
  GI50: > 100 µM (inactive)
[19]
  GI50: 71.3 µM (inactive)
[20]
  GI50: 31.6 µM (inactive)

## CN(C)CC1=Nc2cccc3cccc(c23)N1
[1]
  GI50: 18.8 µM (inactive)
[2]
  GI50: 14.9 µM (inactive)
[3]
  GI50: 18.5 µM (inactive)
[4]
  GI50: 34.7 µM (inactive)
[5]
  GI50: > 100 µM (inactive)
[6]
  GI50: 16.9 µM (inactive)
[7]
  GI50: 4.08 µM (inactive)
[8]
  GI50: 0.235 µM (active)
[9]
  GI50: 16.4 µM (inactive)
[10]
  GI50: 19.8 µM (inactive)
[11]
  GI50: 17.4 µM (inactive)
[12]
  GI50: 33.8 µM (inactive)
[13]
  GI50: 9.16 µM (inactive)
[14]
  GI50: 8.15 µM (inactive)
[15]
  GI50: 13.1 µM (inactive)
[16]
  GI50: 13.3 µM (inactive)
[17]
  GI50: 16.7 µM (inactive)
[18]
  GI50: 16.1 µM (inactive)
[19]
  GI50: 22.9 µM (inactive)
[20]
  GI50: 18.4 µM (inactive)

## CCCCCCCCCCCCCC(=O)OC(/C=C/C(C)C)C(O)C(O)C(OC)C(=O)NC1CCCCNC1=O (stereo not given)
[1]
  GI50: 1.17 µM (inactive)
[2]
  GI50: 0.689 µM (active)
[3]
  GI50: 0.527 µM (active)
[4]
  GI50: 9.79 µM (inactive)
[5]
  GI50: 0.721 µM (active)
[6]
  GI50: 2.84 µM (inactive)
[7]
  GI50: 0.372 µM (active)
[8]
  GI50: 0.587 µM (active)
[9]
  GI50: 1.81 µM (inactive)
[10]
  GI50: 1.38 µM (inactive)
[11]
  GI50: 3.65 µM (inactive)
[12]
  GI50: 1.02 µM (active)
[13]
  GI50: 0.989 µM (active)
[14]
  GI50: 0.242 µM (active)
[15]
  GI50: 0.693 µM (active)
[16]
  GI50: 1.86 µM (inactive)
[17]
  GI50: 0.627 µM (active)
[18]
  GI50: 0.697 µM (active)
[19]
  GI50: 1.2 µM (inactive)
[20]
  GI50: 5.6 µM (inactive)

## Cc1ccc2[nH]c(=N/c3ccccc3C)/c(=N\c3ccccc3C)[nH]c2c1
[1]
  GI50: 19.4 µM (inactive)
[2]
  GI50: 31.3 µM (inactive)
[3]
  GI50: 20 µM (inactive)
[4]
  GI50: 24.1 µM (inactive)
[5]
  GI50: 21.4 µM (inactive)
[6]
  GI50: 25.6 µM (inactive)
[7]
  GI50: 32.3 µM (inactive)
[8]
  GI50: > 46.8 µM (inactive)
[9]
  GI50: 22.4 µM (inactive)
[10]
  GI50: 37.2 µM (inactive)
[11]
  GI50: 21.5 µM (inactive)
[12]
  GI50: 34.3 µM (inactive)
[13]
  GI50: 19.4 µM (inactive)
[14]
  GI50: 17.7 µM (inactive)
[15]
  GI50: 77.3 µM (inactive)
[16]
  GI50: 47.2 µM (inactive)
[17]
  GI50: 23.8 µM (inactive)
[18]
  GI50: 26.3 µM (inactive)
[19]
  GI50: 15.7 µM (inactive)
[20]
  GI50: 38.5 µM (inactive)

## CC(C)c1c(O[Si](C(C)C)(C(C)C)C(C)C)c2c3c(ccc4c3c1OC4(C)C)C(C)CC2 (stereo not given)
[1]
  GI50: > 100 µM (inactive)
[2]
  GI50: > 100 µM (inactive)
[3]
  GI50: > 100 µM (inactive)
[4]
  GI50: > 100 µM (inactive)
[5]
  GI50: > 100 µM (inactive)
[6]
  GI50: > 100 µM (inactive)
[7]
  GI50: > 100 µM (inactive)
[8]
  GI50: > 100 µM (inactive)
[9]
  GI50: > 100 µM (inactive)
[10]
  GI50: > 100 µM (inactive)
[11]
  GI50: > 100 µM (inactive)
[12]
  GI50: > 100 µM (inactive)
[13]
  GI50: > 100 µM (inactive)
[14]
  GI50: > 100 µM (inactive)
[15]
  GI50: > 100 µM (inactive)
[16]
  GI50: > 100 µM (inactive)
[17]
  GI50: > 100 µM (inactive)
[18]
  GI50: > 100 µM (inactive)
[19]
  GI50: > 100 µM (inactive)
[20]
  GI50: > 100 µM (inactive)
